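1) Cells in 96-well plates. 2) Compound, 48 h, 5 concentrations. 3) Linear interpolation between surrounding doses. 4) Unreached endpoint = highest concentration. GI50 = concentration required for 50% inhibition of growth. TGI: concentration producing complete growth inhibition.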
What was measured:
Test in all cases: NCI tumour cell line growth inhibition, 48 h
[1] = tested on: 786-0 renal
[2] = tested on: A498 renal
[3] = tested on: A549 NSCLC
[4] = tested on: ACHN renal
[5] = tested on: BT-549 breast
[6] = tested on: CAKI-1 renal
[7] = tested on: CCRF-CEM leukemia
[8] = tested on: COLO 205 colon
[9] = tested on: DU-145 prostate
[10] = tested on: EKVX NSCLC
[11] = tested on: HCC-2998 colon
[12] = tested on: HCT-116 colon
[13] = tested on: HCT-15 colon
[14] = tested on: HL-60(TB) leukemia
[15] = tested on: HOP-62 NSCLC
[16] = tested on: HOP-92 NSCLC
[17] = tested on: HS 578T breast
[18] = tested on: HT29 colon
[19] = tested on: IGROV1 ovarian
[20] = tested on: K-562 leukemia
[21] = tested on: KM12 colon
[22] = tested on: LOX IMVI melanoma
[23] = tested on: M14 melanoma
[24] = tested on: MALME-3M melanoma
[25] = tested on: MCF7 breast
[26] = tested on: MDA-MB-231 breast
[27] = tested on: MDA-MB-435
[28] = tested on: MOLT-4 leukemia
[29] = tested on: NCI-H226 lung
[30] = tested on: NCI-H23 lung
[31] = tested on: NCI-H460 lung
[32] = tested on: NCI-H522 lung
[33] = tested on: NCI/ADR-RES ovarian
[34] = tested on: OVCAR-3 ovarian
[35] = tested on: OVCAR-4 ovarian
[36] = tested on: OVCAR-5 ovarian
[37] = tested on: OVCAR-8 ovarian
[38] = tested on: PC-3 prostate
[39] = tested on: RPMI-8226 leukemia
[40] = tested on: RXF 393 renal
[41] = tested on: SF-268 CNS
[42] = tested on: SF-295 CNS
[43] = tested on: SF-539 CNS
[44] = tested on: SK-MEL-2 melanoma
[45] = tested on: SK-MEL-28 melanoma
[46] = tested on: SK-MEL-5 melanoma
[47] = tested on: SK-OV-3 ovarian
[48] = tested on: SN12C renal
[49] = tested on: SNB-19 CNS
[50] = tested on: SNB-75 CNS
[51] = tested on: SR leukemia
[52] = tested on: SW-620 colon
[53] = tested on: T-47D breast
[54] = tested on: TK-10 renal
[55] = tested on: U251 CNS
[56] = tested on: UACC-257 melanoma
[57] = tested on: UACC-62 melanoma
[58] = tested on: UO-31 renal

O=c1cc(-c2ccccc2)nc2cc(-c3ccco3)[nH]n12
GI50 [1]: 31 µM | TGI [1]: > 100 µM | GI50 [2]: 3.6 µM | TGI [2]: 28.6 µM | GI50 [3]: 12.6 µM | TGI [3]: > 100 µM | GI50 [4]: 22.6 µM | TGI [4]: > 100 µM | GI50 [5]: 14.8 µM | TGI [5]: > 100 µM | GI50 [6]: 5.21 µM | TGI [6]: 55.4 µM | GI50 [7]: 16.3 µM | TGI [7]: > 100 µM | GI50 [8]: 6.65 µM | TGI [8]: 44 µM | GI50 [9]: 19.5 µM | TGI [9]: 79.7 µM | GI50 [10]: 15.6 µM | TGI [10]: 78.3 µM | GI50 [11]: 13.3 µM | TGI [11]: > 100 µM | GI50 [12]: 15.7 µM | TGI [12]: > 100 µM | GI50 [13]: 6.16 µM | TGI [13]: > 100 µM | GI50 [14]: 11.1 µM | TGI [14]: > 100 µM | GI50 [15]: 13.4 µM | TGI [15]: > 100 µM | GI50 [16]: 10.5 µM | TGI [16]: 93.3 µM | GI50 [17]: 7.1 µM | TGI [17]: 37.3 µM | GI50 [18]: 4.22 µM | TGI [18]: > 100 µM | GI50 [19]: 7.91 µM | TGI [19]: 60 µM | GI50 [20]: 4.06 µM | TGI [20]: > 100 µM | GI50 [21]: 3.26 µM | TGI [21]: 50.6 µM | GI50 [22]: 15.2 µM | TGI [22]: > 100 µM | GI50 [23]: 9.45 µM | TGI [23]: > 100 µM | GI50 [24]: 3.47 µM | TGI [24]: 94.5 µM | GI50 [25]: 0.554 µM | TGI [25]: > 100 µM | GI50 [26]: 7.84 µM | TGI [26]: > 100 µM | GI50 [27]: 1.97 µM | TGI [27]: 5.67 µM | GI50 [28]: 10.7 µM | TGI [28]: > 100 µM | GI50 [29]: 47.9 µM | TGI [29]: > 100 µM | GI50 [30]: 13.2 µM | TGI [30]: 89.1 µM | GI50 [31]: 4.49 µM | TGI [31]: 20.6 µM | GI50 [32]: 6.77 µM | TGI [32]: 40.7 µM | GI50 [33]: 11.4 µM | TGI [33]: 50.9 µM | GI50 [34]: 10.8 µM | TGI [34]: 37.1 µM | GI50 [35]: 23 µM | TGI [35]: > 100 µM | GI50 [36]: 42.2 µM | TGI [36]: > 100 µM | GI50 [37]: 18 µM | TGI [37]: > 100 µM | GI50 [38]: 15 µM | TGI [38]: > 100 µM | GI50 [39]: 13.7 µM | TGI [39]: 89.9 µM | GI50 [40]: 18.9 µM | TGI [40]: > 100 µM | GI50 [41]: 14.9 µM | TGI [41]: > 100 µM | GI50 [42]: 3.64 µM | TGI [42]: 25.6 µM | GI50 [43]: 13.3 µM | TGI [43]: 78.9 µM | GI50 [44]: 6.53 µM | TGI [44]: 54.2 µM | GI50 [45]: 8.78 µM | TGI [45]: > 100 µM | GI50 [46]: 6.58 µM | TGI [46]: 22.1 µM | GI50 [47]: 14.2 µM | TGI [47]: 82.8 µM | GI50 [48]: 18.5 µM | TGI [48]: > 100 µM | GI50 [49]: 12.6 µM | TGI [49]: > 100 µM | GI50 [50]: 12.5 µM | TGI [50]: > 100 µM | GI50 [51]: 3.14 µM | TGI [51]: 82.5 µM | GI50 [52]: 4.51 µM | TGI [52]: > 100 µM | GI50 [53]: 4.44 µM | TGI [53]: > 100 µM | GI50 [54]: 19.8 µM | TGI [54]: 96.9 µM | GI50 [55]: 4.74 µM | TGI [55]: > 100 µM | GI50 [56]: 17.3 µM | TGI [56]: > 100 µM | GI50 [57]: 5.66 µM | TGI [57]: > 100 µM | GI50 [58]: 7.92 µM | TGI [58]: 59.8 µM
